Read-outs that look alike come from different tables or passages of the source. Marks after values point to notes of the source that are not given here.
How the values were obtained:
mice = experiment: Sedative effects in mice (spontaneous activities); type: in vivo; design: unit not given here; conditions: single dose 20 mg/kg
Method: Spontaneous activities of the mice were recorded by alternating current tube, Sedative effects were tested after single dose (20 mg/kg).

5-HT2A receptor = biological target: T1, 5-HT2A receptor (Homo sapiens, UniProt P28223); experiment: In-vitro competitive binding to 5-HT2A receptor, [3H]-Ketanserin, transformed HEK293 cells; conditions: for inhibition at 10 µM: read-out: 5-HT2A [3H]-Ketanserin inhibition percentage; for IC50 / Ki: affinity to 5-HT2A receptor, concentration gradient test; for inhibitory activity on 5-HT2A (in words): compared with Aripiprazole
T1 construct: expressed in transfected cells; host or cells: HEK293
T1 sequence (P28223 whole entry): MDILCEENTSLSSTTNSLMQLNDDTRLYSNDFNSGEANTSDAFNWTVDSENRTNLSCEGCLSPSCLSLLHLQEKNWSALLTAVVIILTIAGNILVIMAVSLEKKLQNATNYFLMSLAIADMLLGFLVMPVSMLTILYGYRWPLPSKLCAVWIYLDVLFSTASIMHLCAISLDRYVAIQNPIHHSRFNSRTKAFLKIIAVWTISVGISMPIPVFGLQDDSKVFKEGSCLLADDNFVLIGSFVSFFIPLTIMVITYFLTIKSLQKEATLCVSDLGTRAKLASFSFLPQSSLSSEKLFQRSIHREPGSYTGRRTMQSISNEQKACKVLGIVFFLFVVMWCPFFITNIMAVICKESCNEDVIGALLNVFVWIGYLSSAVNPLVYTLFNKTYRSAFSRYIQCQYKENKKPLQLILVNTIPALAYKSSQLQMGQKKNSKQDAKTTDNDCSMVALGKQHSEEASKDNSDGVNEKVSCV
Method: All test samples were dissolved in DMSO at a concentration of 0.01 mol/L, and then diluted with deionized water to 100 umol/L.
HEK293 cells were transformed with plasmid carriers containing the gene coding for 5-HT2A receptor protein by using calcium phosphate transformation. Stable cell strains which could stably express 5-HT2A receptor protein were obtained from the transformed cells by cultivating in a culture media containing G418, selecting monoclones of the cell and performing radioactive ligand binding assay.
Beckman LS 6500 Scintillation Counter.
HEK-293 cells were infected with recombined viruses containing various genes described above. […] Cells were centrifuged at 1000 rpm for 5 min Culture media was discarded, and cell bodies were collected and stored at −20° C. in a freezer. The cell bodies were resuspended with Tris-HCl reaction buffer during assay.
After incubation at 37° C. for 15 min, the reaction mixture was immediately transferred into ice bath to terminate the reaction; the reaction mixture was quickly filtered through GF/C glass cellulose filter on a Millipore cell sample collector, and was then washed with eluting solution (50 mM Tris-HCl, PH 7.7, 3 ml×3) and dried in a microwave for 8-9 min. The filter was transferred into a 0.5 ml centrifuge tube, and 500 μl lipid soluble scintillation fluid was added. The centrifuge tube was allowed to stand in darkness for more than 30 min. Radioactivity was determined by counting Inhibition percentage of each compound on isotope ligand binding was calculated according to the following equation:
inhibition percentage(I %)=cpm of overall binding tube−cpm of compound/cpm of overall binding tube−cpm of nonspecific binding tube×100%.
Each compound was tested in two duplicate test tubes and two separate tests were performed.

Kunming mice [1] = experiment: Hot-plate test in mice; type: in vivo; conditions: 1 h post dose
Method: Kunming mice, SPF KM mice were purchased from […] SLAC LABORATORY ANIMAL CO. LTD and kept in normal environment.
The compounds were dissolved in water for injection at a concentration of 4 mg/ml, 2 mg/ml and 1 mg/ml and were given subcutaneously to animals.
(§1) Three different doses (10, 20, and 40 mg/kg) were administered to the test groups.
Morphine was used as a positive control and hot plate test was used.
30-40 mice (half male and half female) weighed from 18 to 23 gram were used. First, each mouse was placed on a hot plat at 55° C. to determine basic pain threshold for 2-3 times. Those animals with basic pain threshold of 5-30 s were qualified, unqualified mice were not used. 30 qualified mice were divided into five groups, including negative control group, positive control group, low-dose group, medium-dose group and high-dose group:
Mice in test groups received test sample solution (10 mg/kg, 20 mg/kg, 40 mg/kg) via subcutaneous injection in the neck. Positive control group received subcutaneous injection of morphine (2 mg/kg). One hour later, pain threshold values were determined for mice in each group as post-drug pain threshold. Percentage increase in pain threshold was calculated according to the following equation: […]

Kunming mice [2] = experiment: Acetic acid-induced abdominal writhing test in mice; type: in vivo
Method: Kunming mice, SPF KM mice purchased from […] SLAC LABORATORY ANIMAL CO. LTD and kept in normal environment.
The compounds were dissolved in water for injection at a concentration of 4 mg/ml, 2 mg/ml and 1 mg/ml and were given intragastrically to animals.
as §1
Aspirin was used as a positive control and acetic acid writhing test was used.
30 mice (half male and half female) weighing 18-23 g were divided into five groups, including negative control group, positive control group, low dose group, medium dose group and high dose group:
Mice in test group received test drug (10 mg/kg, 20 mg/kg, 40 mg/kg) via intragastric administration. Negative control group received physiological saline (20 ml/kg) via oral administration. Positive control group received aspirin (200 mg/kg) via oral administration. One hour later, each group received 0.7% acetic acid 10 ml/kg intraperitoneally. Five minutes later, the number of writhes was counted within the subsequent 15 min period; inhibition percentage of writhing response in each test group was calculated by the following equation: […]

[3] = biological target: T2, 5-HT reuptake by brain synapses (Rattus norvegicus, UniProt P31652); experiment: [3H]5-HT reuptake test in rat brain synapses; type: biochemical; conditions: for inhibitory activity on 5-HT reuptake (in words): at 10 μmol/L, compared with Dutoxetine; for inhibition at 10 µM: final concentration 10 umol/L, rat brain synapses, read-out: 5-HTU [3H] 5-HT reuptake inhibition percentage Mean
T2 construct: forehead cortex was obtained for [^3H]5-HT, [^3H]NA reuptake test; from tissue; host or cells: rat (SD) forebrain cortex synaptosomes
T2 sequence (P31652 whole entry): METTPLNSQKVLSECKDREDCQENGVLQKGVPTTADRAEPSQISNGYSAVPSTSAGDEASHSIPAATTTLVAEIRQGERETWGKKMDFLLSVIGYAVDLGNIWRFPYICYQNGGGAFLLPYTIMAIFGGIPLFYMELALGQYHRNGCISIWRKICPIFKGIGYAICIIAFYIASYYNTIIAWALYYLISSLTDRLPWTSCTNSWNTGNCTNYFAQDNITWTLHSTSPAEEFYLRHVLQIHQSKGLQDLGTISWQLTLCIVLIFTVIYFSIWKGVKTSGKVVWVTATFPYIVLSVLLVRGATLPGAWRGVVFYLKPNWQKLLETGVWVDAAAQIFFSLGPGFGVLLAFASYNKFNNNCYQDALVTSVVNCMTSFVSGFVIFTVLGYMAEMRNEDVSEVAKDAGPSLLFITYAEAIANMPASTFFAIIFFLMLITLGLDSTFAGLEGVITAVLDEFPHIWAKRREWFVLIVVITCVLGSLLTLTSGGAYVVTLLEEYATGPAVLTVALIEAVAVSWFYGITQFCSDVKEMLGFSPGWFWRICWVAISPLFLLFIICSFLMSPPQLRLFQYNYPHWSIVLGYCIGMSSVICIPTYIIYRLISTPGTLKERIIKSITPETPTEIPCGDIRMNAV
Method: The method was as follows:
Male SD rats were killed by cervical dislocation, heads were immediately cut and brains were obtained and put on ice, related brain tissues were dissected (forehead cortex was obtained for [^3H]5-HT, [^3H]NA reuptake test, corpus striatum was obtained for [^3H]DA reuptake).
After the sample was weighed, 10 folds (V/W) ice cold 0.32 mol/L sucrose solution was added.
According to [a. […] 5-HT was added and after incubation in water bath at 37° C. for 10 min, the reaction mixture was immediately taken out of the water bath and 2 ml ice cold 150 mmol/L Tris-HCl was added to terminate the reaction. The sample was collected on a round glass fiber filter by vacuum filtration and washed three times with 3 ml ice cold Tris-HCl buffer. The filter membrane was removed, dried in a far-infrared oven for 15 min, then transferred into a EP tube, in which 1.5 ml scintillation fluid was added, left overnight and detected by a scintillation counter. The test sample was not added into solvent controlled overall binding tube or non-specific binding tube. 50 μl solvent was added into the overall binding tube, and in [^3H] 5-HT reuptake test, 600 μmol/L cocaine was added into the non-specific binding tube.

[4] = 10 mg/kg intragastric administration
[5] = 20 mg/kg intragastric administration
[6] = 40 mg/kg intragastric administration

`N#Cc1ccc2ncn(CCCCN3CCC(c4noc5cc(F)ccc45)CC3)c2c1` [III-3, 1-(4-(4-(6-fluorobenzo[d]isoxazol-3-yl)piperidin-1-yl)butyl)-1H-benzo[d]imidazole-6-carbonitrile] was tested, and the Sedative effect (mice) was 52*.
`Fc1ccc2c(C3CCN(CCCn4ncc5ccccc54)CC3)noc2c1` [II-13, 3-(1-(3-(1H-indazol-1-yl)propyl)piperidin-4-yl)-6-fluorobenzo[d]isoxazole] was tested, and the Sedative effect (mice) was 66*.
In the case of `Fc1ccc2c(C3CCN(CCCCn4ccc5ccc(Cl)cc54)CC3)noc2c1` [II-10, 3-(1-(4-(6-chloro-1H-indol-1-yl)butyl)piperidin-4-yl)-6-fluorobenzo[d]isoxazole], the Sedative effect (mice) is reported as 99**.
`Fc1ccc2c(C3CCN(CCOn4nnc5ccc(Cl)cc54)CC3)noc2c1` [IV-3, 3-(1-(2-(6-chloro-1H-benzo[d][1,2,3]triazol-1-yloxy)ethyl)piperidin-4-yl)-6-fluorobenzo[d]isoxazole] was tested, and the inhibition at 10 µM (5-HT2A receptor) was 92.8% and the Sedative effect (mice) was 67*.
In the case of `Fc1ccc2c(C3CCN(CCCn4cnc5ccc(F)cc54)CC3)noc2c1` [III-1, 6-fluoro-3-(1-(3-(6-fluoro-1H-benzo[d]imidazol-1-yl)propyl)piperidin-4-yl)benzo[d]isoxazole], the Sedative effect (mice) is reported as 54*.
Work on `N#Cc1ccc2ccn(OCCN3CCC(c4noc5cc(F)ccc45)CC3)c2c1` [IV-1, 1-(2-(4-(6-fluorobenzo[d]isoxazol-3-yl)piperidin-1-yl)ethoxy)-1H-indole-6-carbonitrile] yielded a Sedative effect (mice) of 20.
Compound `Fc1ccc2c(C3CCN(CCCn4cnc5ccccc54)CC3)noc2c1` [II-11, 3-(1-(3-(1H-benzo[d]imidazol-1-yl)propyl)piperidin-4-yl)-6-fluorobenzo[d]isoxazole] has an inhibition at 10 µM (5-HT2A receptor) of 99.6% and a Sedative effect (mice) of 0.
In the case of `Fc1ccc2c(C3CCN(CCn4ccc5ccccc54)CC3)noc2c1` [II-1, 3-(1-(2-(1H-indol-1-yl)ethyl)piperidin-4-yl)-6-fluorobenzo[d]isoxazole], the inhibition at 10 µM (5-HT2A receptor) is reported as 99.5% and the Sedative effect (mice) is reported as 43*.
With `CN1CC[C@]23c4c5ccc(O)c4O[C@H]2[C@@H](O)C=C[C@H]3[C@H]1C5` [Morphine, reference compound] the “Percentage increase in pain threshold” value (Kunming mice [1]; positive control, 2 mg/kg S.c., hot plate 55° C.) was 202.5** %.
With `Fc1ccc2c(C3CCN(CCCn4ccc5ccc(F)cc54)CC3)noc2c1` [II-5, 6-fluoro-3-(1-(3-(6-fluoro-1H-indol-1-yl)propyl)piperidin-4-yl)benzo[d]isoxazole] the Sedative effect (mice) was 65*.
`N#Cc1ccc2ccn(CCCN3CCC(c4noc5cc(F)ccc45)CC3)c2c1` [II-6, 1-(3-(4-(6-fluorobenzo[d]isoxazol-3-yl)piperidin-1-yl)propyl)-1H-indole-6-carbonitrile] was tested, and the IC50 (5-HT2A receptor) was 4.78 nM, the Ki (5-HT2A receptor) was 3.22 nM and the “inhibitory activity on 5-HT2A (in words)” value (5-HT2A receptor) was “potent inhibitory activities”. The inhibition at 10 µM (5-HT2A receptor; final concentration 10 umol/L) was 100%, the Sedative effect (mice) was 75** and the “Percentage increase in pain threshold” value (Kunming mice [1]; 10 mg/kg S.c.) was 41.11%. For the same compound, the “Percentage increase in pain threshold” value (Kunming mice [1]; 20 mg/kg S.c.) was 73.68* %, the “Percentage increase in pain threshold” value (Kunming mice [1]; 40 mg/kg S.c.) was 72.38* % and the “Inhibition percentage of writhing response” value (“Inhibition percentage” below) (Kunming mice [2]; [4]) was 74.09* %. For the same compound, the “Inhibition percentage” value (Kunming mice [2]; [5]) was 69.55%, the “Inhibition percentage” value (Kunming mice [2]; [6]) was 100.0** % and the “inhibitory activity on 5-HT reuptake (in words)” value [3] was “potent inhibitory activities”. For the same compound, the inhibition at 10 µM [3] was 96.7%.
In the case of `Fc1ccc2c(C3CCN(CCCCn4ccc5ccc(F)cc54)CC3)noc2c1` [II-8, 6-fluoro-3-(1-(4-(6-fluoro-1H-indol-1-yl)butyl)piperidin-4-yl)benzo[d]isoxazole], the IC50 (5-HT2A receptor) is reported as 5.33 nM, the Ki (5-HT2A receptor) is reported as 2.79 nM and the “inhibitory activity on 5-HT2A (in words)” value (5-HT2A receptor) is reported as “potent inhibitory activities”. For the same compound, the inhibition at 10 µM (5-HT2A receptor; final concentration 10 umol/L) was 100%, the Sedative effect (mice) was 42* and the “Percentage increase in pain threshold” value (Kunming mice [1]; 10 mg/kg S.c.) was 97.49%. For the same compound, the “Percentage increase in pain threshold” value (Kunming mice [1]; 20 mg/kg S.c.) was 160.50** %, the “Percentage increase in pain threshold” value (Kunming mice [1]; 40 mg/kg S.c.) was 172.81* % and the “Inhibition percentage” value (Kunming mice [2]; [4]) was 95.88* %. For the same compound, the “Inhibition percentage” value (Kunming mice [2]; [5]) was 96.46** %, the “Inhibition percentage” value (Kunming mice [2]; [6]) was 100.0** % and the “inhibitory activity on 5-HT reuptake (in words)” value [3] was “potent inhibitory activities”. It also gave an inhibition at 10 µM [3] of 107%.
With `Fc1ccc2c(C3CCN(CCCCCn4ccc5ccccc54)CC3)noc2c1` [II-4, 3-(1-(5-(1H-indol-1-yl)pentyl)piperidin-4-yl)-6-fluorobenzo[d]isoxazole] the inhibition at 10 µM (5-HT2A receptor) was 99.9% and the Sedative effect (mice) was 91**.
With `N#Cc1ccc2ccn(OCCCN3CCC(c4noc5cc(F)ccc45)CC3)c2c1` [IV-2, 1-(3-(4-(6-fluorobenzo[d]isoxazol-3-yl)piperidin-1-yl)propoxy)-1H-indole-6-carbonitrile] the Sedative effect (mice) was 52*.
`Fc1ccc2c(C3CCN(CCCCn4cnc5ccccc54)CC3)noc2c1` [II-12, 3-(1-(4-(1H-benzo[d]imidazol-1-yl)butyl)piperidin-4-yl)-6-fluorobenzo[d]isoxazole] was tested, and the inhibition at 10 µM (5-HT2A receptor) was 99.5% and the Sedative effect (mice) was 52*.
`CC(=O)Oc1ccccc1C(=O)O` [Aspirin, reference compound] was tested, and the “Inhibition percentage” value (Kunming mice [2]; positive control, 200 mg/kg oral, 1 h before acetic acid) was 95.05** %.
In the case of `Fc1ccc2c(C3CCN(CCCCn4ccc5ccccc54)CC3)noc2c1` [II-3, 3-(1-(4-(1H-indol-1-yl)butyl)piperidin-4-yl)-6-fluorobenzo[d]isoxazole], the IC50 (5-HT2A receptor) is reported as 1.66 nM, the Ki (5-HT2A receptor) is reported as 1.12 nM and the “inhibitory activity on 5-HT2A (in words)” value (5-HT2A receptor) is reported as “potent inhibitory activities”. The inhibition at 10 µM (5-HT2A receptor; final concentration 10 umol/L) was 100%, the Sedative effect (mice) was 35 and the “Percentage increase in pain threshold” value (Kunming mice [1]; 10 mg/kg S.c.) was 95.48* %. The “Percentage increase in pain threshold” value (Kunming mice [1]; 20 mg/kg S.c.) was 194** %, the “Percentage increase in pain threshold” value (Kunming mice [1]; 40 mg/kg S.c.) was 133% and the “Inhibition percentage” value (Kunming mice [2]; [4]) was 98.65** %. The “Inhibition percentage” value (Kunming mice [2]; [5]) was 100.0** %, the “Inhibition percentage” value (Kunming mice [2]; [6]) was 100.0** % and the “inhibitory activity on 5-HT reuptake (in words)” value [3] was “potent inhibitory activities”. The inhibition at 10 µM [3] was 95.9%.
With `Fc1ccc2c(C3CCN(CCCn4ccc5ccccc54)CC3)noc2c1` [II-2, 3-(1-(3-(1H-indol-1-yl)propyl)piperidin-4-yl)-6-fluorobenzo[d]isoxazole] the Sedative effect (mice) was 44*.
`COC(=O)c1ccc2ccn(CCCN3CCC(c4noc5cc(F)ccc45)CC3)c2c1` [II-7, methyl 1-(3-(4-(6-fluorobenzo[d]isoxazol-3-yl)piperidin-1-yl)propyl)-1H-indole-6-carboxylate] was tested, and the Sedative effect (mice) was 96**.

— patent US20110306638A1, “BENZISOXAZOLE PIPERIDINYL DERIVATIVES, PHARMACEUTICAL COMPOSITIONS COMPRISING THE DERIVATIVES AND THEIR USE” (NHWA PHARMA. CORPORATION, priority 2008, published 2011)
